Source: US4450234A, “Antibiotic C-15003 PHM and production thereof” (Takeda Chemical Industries, Ltd., priority 1979, dated 1984)
≈ marks a conversion by molar mass, not a printed value.

Key:
[1] = Neutral lipophilic character; assay type: physicochemical
Proteus vulgaris = test: Antibacterial activity, paper disk method; assay type: cell-based; conditions: paper disk 8 mm, 0.02 ml of 300 μg/ml solution, Trypticase-soy-agar
Protocol: (§1) Using Trypticase-soy-agar (Baltimore Biologicals, U.S.A.) as the assay medium, the growth inhibitory concentrations of the compound against the various microorganisms named hereinbelow were determined by the paperdisk method. Thus, on plate media containing the following microorganisms, respectively, minimal inhibitory concentrations were determined using paper disks imbibed with 0.02 ml of a 300 μg/ml solution of PHM-3 or PHM-4 (disks, Toyo Seisakusho, Japan, thin-type, diam. 8 mm).
(§2) Escherichia coli, Proteus vulgaris, Proteus mirabilis, Pseudomonas aeruginosa, Staphylococcus aureus, Bacillus subtilis, Bacillus cereus, Klebsiella pneumoniae, Serratia marcessence, Mycobacterium avium.
(§3) Using Trypticase-soy-agar (Baltimore Biologicals, U.S.A.) as the test medium, the growth inhibitory activity of the compound against the organisms named below was assayed by the paper disk method. Thus, on the plate media each containing one of the undermentioned organisms, the activity of the compound was tested using paper disks (Toyo Seisakusho, Japan, thin type, diam. 8 mm) imbibed with 0.02 ml of a 300 μg/ml solution of PHM-3-acetate.
(§4) Escherichia coli, Proteus vulgaris, Proteus mirabilis, Pseudomonas aeruginosa, Staphylococcus aureus, Bacillus subtilis, Bacillus cereus, Klebsiella pneumoniae, Serratia marcescence, Mycobacterium avium.

Escherichia coli = test: Antibacterial activity, paper disk method; assay type: cell-based; conditions: paper disk 8 mm, 0.02 ml of 300 μg/ml solution, Trypticase-soy-agar
Protocol: as §1, §2, §3, §4

Proteus mirabilis = test: Antibacterial activity, paper disk method; assay type: cell-based; conditions: paper disk 8 mm, 0.02 ml of 300 μg/ml solution, Trypticase-soy-agar
Protocol: as §1, §2, §3, §4

Klebsiella pneumoniae = test: Antibacterial activity, paper disk method; assay type: cell-based; conditions: paper disk 8 mm, 0.02 ml of 300 μg/ml solution, Trypticase-soy-agar
Protocol: as §1, §2, §3, §4

Bacillus cereus = test: Antibacterial activity, paper disk method; assay type: cell-based; conditions: paper disk 8 mm, 0.02 ml of 300 μg/ml solution, Trypticase-soy-agar
Protocol: as §1, §2, §3, §4

Bacillus subtilis = test: Antibacterial activity, paper disk method; assay type: cell-based; conditions: paper disk 8 mm, 0.02 ml of 300 μg/ml solution, Trypticase-soy-agar
Protocol: as §1, §2, §3, §4

Pseudomonas aeruginosa = test: Antibacterial activity, paper disk method; assay type: cell-based; conditions: paper disk 8 mm, 0.02 ml of 300 μg/ml solution, Trypticase-soy-agar
Protocol: as §1, §2, §3, §4

Serratia marcessence = test: Antibacterial activity, paper disk method; assay type: cell-based; conditions: paper disk 8 mm, 0.02 ml of 300 μg/ml solution, Trypticase-soy-agar
Protocol: as §1, §2, §3, §4

Mycobacterium avium = test: Antibacterial activity, paper disk method; assay type: cell-based; conditions: paper disk 8 mm, 0.02 ml of 300 μg/ml solution, Trypticase-soy-agar
Protocol: as §1, §2, §3, §4

Staphylococcus aureus = test: Antibacterial activity, paper disk method; assay type: cell-based; conditions: paper disk 8 mm, 0.02 ml of 300 μg/ml solution, Trypticase-soy-agar
Protocol: as §1, §2, §3, §4

Tetrahymena pyriformis W = test: Antiprotozoan growth inhibition, serial broth dilution method; assay type: cell-based; conditions: 44 h, 28° C., 44 to 48 hours, pH 7.0, serial broth dilution, read-out: growth inhibitory concentration
Protocol: In addition, using Tetrahymena pyriformis W strain as the test organism and the assay medium composed of 20 g proteose peptone (Difco, U.S.A.), 1 g yeast extract, 2 g glucose, 1000 ml distilled water and 10 ml 1 M phosphate buffer, pH 7.0, cultivation was carried out at 28° C. for 44 to 48 hours and the growth inhibitory concentration of the antibiotic was determined by the serial broth dilution method.
Tetrahymena pyriformis W, as the test organism, was cultivated on an assay medium [20 g of proteose-peptone (Difco, U.S.A.), 1 g of yeast extract, 2 g of glucose, 1000 ml of distilled water, 10 ml of 1 M phosphate buffer, pH 7.0] at 28° C. for 44 to 48 hours and the growth inhibitory activity of the compound against the above-mentioned strain was assayed by the serial dilution method.

Nocardia sp. No. N-1231 = test: Antibiotic resistance of No. N-1231 strain; assay type: cell-based

Row | Compound | neutral lipophilic / fat-soluble character [1] | activity (growth inhibition) (Proteus vulgaris) | activity (growth inhibition) (Escherichia coli) | activity (growth inhibition) (Proteus mirabilis) | activity (growth inhibition) (Klebsiella pneumoniae) | activity (growth inhibition) (Bacillus cereus) | activity (growth inhibition) (Bacillus subtilis) | activity (growth inhibition) (Pseudomonas aeruginosa) | activity (growth inhibition) (Serratia marcessence) | activity (growth inhibition) (Mycobacterium avium) | activity (growth inhibition) (Staphylococcus aureus) | MIC (Tetrahymena pyriformis W) [µg/mL] | resistance of No. N-1231 strain (Nocardia sp. No. N-1231)
1 | COc1cc2cc(c1Cl)N(C)C(=O)CC(OC(C)=O)C1(C)OC1C(C)C1CC(O)(NC(=O)O1)C(OC)C=CC=C(C)C2 (stereo not drawn) [P-1, maytanacine] | neutral lipophilic | – | – | – | – | – | – | – | – | – | – | – | –
2 | COc1cc2cc(c1Cl)N(C)C(=O)CC(O)C1(C)OC1C(C)C1CC(O)(NC(=O)O1)C(OC)/C=C/C=C(\C)C2 (stereo not drawn) [P-0, maytansinol] | neutral lipophilic | – | – | – | – | – | – | – | – | – | – | – | –
3 | CCC(=O)OC1CC(=O)N(C)c2cc(cc(OC)c2Cl)CC(C)=CC=CC(OC)C2(O)CC(OC(=O)N2)C(C)C2OC12C (stereo not drawn) [P-2, maytansinol propionate] | neutral lipophilic | – | – | – | – | – | – | – | – | – | – | – | –
4 | COc1cc2cc(c1Cl)N(C)C(=O)CC(OC(=O)C(C)C)C1(C)OC1C(C)C1CC(O)(NC(=O)O1)C(OC)C=CC=C(CO)C2 (stereo not drawn) [PHM-3] | – | no activity | no activity | no activity | no activity | no activity | no activity | no activity | no activity | no activity | no activity | 40 (≈ 61.4 µM) | –
5 | COc1cc2cc(c1Cl)N(C)C(=O)CC(OC(=O)C(C)C)C1(C)OC1C(C)C1CC(O)(NC(=O)O1)C(OC)C=CC=C(COC(C)=O)C2 (stereo not drawn) [PHM-3-acetate] | – | failed to show activity | failed to show activity | failed to show activity | failed to show activity | failed to show activity | failed to show activity | failed to show activity | failed to show activity | failed to show activity | failed to show activity | 8 (≈ 11.5 µM) | –
6 | CCC[C@@H]1C[C@@H](C(=O)N[C@@H]([C@H]2O[C@H](SC)[C@H](O)[C@@H](O)[C@H]2O)[C@@H](C)O)N(C)C1 [lincomycin] | – | – | – | – | – | – | – | – | – | – | – | – | resistant
7 | CC1(C)S[C@@H]2[C@H](NC(=O)Cc3ccccc3)C(=O)N2[C@H]1C(=O)O [penicillin G] | – | – | – | – | – | – | – | – | – | – | – | – | resistant
8 | [H]/N=C(/N)N[C@H]1[C@H](O)[C@@H](O)[C@H](O[C@@H]2O[C@@H](C)[C@](O)(C=O)[C@H]2O[C@@H]2O[C@@H](CO)[C@H](O)[C@@H](O)[C@@H]2NC)[C@@H](N/C(N)=N\[H])[C@@H]1O [streptomycin] | – | – | – | – | – | – | – | – | – | – | – | – | resistant
9 | COc1cc2cc(c1Cl)N(C)C(=O)CC(OC(=O)CC(C)C)C1(C)OC1C(C)C1CC(O)(NC(=O)O1)C(OC)C=CC=C(CO)C2 (stereo not drawn) [PHM-4] | – | no activity | no activity | no activity | no activity | no activity | no activity | no activity | no activity | no activity | no activity | 40 (≈ 60.1 µM) | –
